Data: patent US20230265524A1, “IMMUNOGENIC RETROELEMENTS AND THEIR USE IN CANCER THERAPY” (UNIVERSITY HEALTH NETWORK, priority 2020, published 2023)

What was measured:
[1] = system: MDA5; assay: MDA5-protection assay followed by RNA sequencing; type: cell-based, human
Procedure: A-C, Percentage of non-repeats and several families of Repetitive Elements in the total cytoplasmic fraction (‘Total CytoRNA’) and in the MDA5-protected fraction (‘MDA5-protected’) at the mock-treated baseline condition (A) and after 5-AZA-CdR treatment at 300 nM for 5 days, p<2.2e-16 (B). Treatment-induced immunogenic RNAs' refers to transcripts present in 5-AZA-CdR treated condition but not present in the baseline mock-treated condition (i.e. induced by the treatment), p<2.2e-16 (C). Each plot is the average percentage of two replicates. P-values represent the Fisher Exact test for enrichment of SINEs and depletion of non-repeats in immunogenic RNAs (5-AZA-CdR) and Treatment-induced immunogenic RNAs as compared to the MDA5-protected baseline immunogenic RNAs.
D-E, Counts of the expressed Alus in terms of the Log10 Fold change of their MDA5-protected expression over their Total CytoRNA expression. IR-Alus that are MDA5 dsRNA agonists have positive values on the x-axis. […] The color code represents Alus making Inverted Repeats pairs (gray) and Non-IR pairs (black) for Baseline immunogenic RNAs (n=187 Non-IR Alus and 1,602 IR-Alus) (D) and for the Treatment-induced immunogenic RNAs (n=992 Non-IR Alus and 5,199 IR-Alus) (E).
A, Venn-diagram showing the IR-Alu pairs at the Baseline (n=1,040), Immunogenic (5-AZA-CdR) (n=4,482) and Treatment-induced (n=3,687) conditions.
Viral mimicry response to epigenetic therapy is dependent on activation of the MDA5 pattern recognition receptor by endogenous dsRNAs^1,6,8. Therefore, to directly identify drug-induced immunogenic retroelements, we performed an MDA5-protection assay^19, followed by RNA sequencing. […] In contrast, only 1.71% of MDA5-protected RNAs in mock-treated samples were LTRs and 6.40% were LINEs (FIG. 2A). For DNMTi-treated samples, only 1.81% were LTRs and 7.56% were LINEs (FIG. 2B).
Then, to identify the immunogenic retroelements induced only by DNMTi treatment (“Treatment-Induced immunogenic RNAs”), we excluded those that were expressed in both the mock- and DNMTi-treated samples (FIG. 3A). Alu retroelements represented 88.72% of all MDA5-protected RNAs present only in DNMTi treated samples (“Treatment-Induced immunogenic RNAs”) (FIG. 2C). Treatment-induced immunogenic RNAs also included non-repeats (5.15%), LINEs (3.86%) and LTRs elements (1.37%) (FIG. 2C). Overall, our results reveal that while many dsRNA species are induced after DNMTi, Alu elements, but not LTRs/ERVs as previously assumed^1,2,4-6,20, are the major source of immunogenic dsRNA induced upon epigenetic therapy.
To uncover the molecular mechanisms of how repetitive elements generate immunogenic dsRNA, we examined all repeats in MDA5-protected transcripts and searched for repeat pairs within a 3 Kb window. […] Moreover, MDA5-protected RNA contained higher levels of IR-Alus compared to non-IR (direct repeat) Alus (FIG. 2D-E). The expression of baseline IR-Alus was maintained but not enhanced after 5-AZA-CdR treatment (FIG. 2D, FIG. 3D) while treatment-induced IR-Alu hybrids became highly expressed in the MDA5-protected RNA only after treatment with 5-AZA-CdR (FIG. 2E, FIG. 3E). […] Moreover, the majority of IR-Alu pairs were unidirectionally transcribed either in the sense (both repeats in the positive strand: “+/+”) or antisense (both repeats in the negative strand: “−/−”) direction in both baseline (FIG. 2H) and treatment-induced dsRNA (FIG. 2I).

[2] = system: patient-derived CRC cells; assay: in vivo LDA measuring tumour-initiation potential; set-up: species or system NSG mice
Procedure: F Schematic representation of in vivo LDA measuring tumour-initiation potential. NSG mice were injected with 10,000 cells (n=8 tumours), 1,000 cells (n=8 tumours), 100 cells (n=8 tumours) and 10 cells (n=16 tumours).
G, Tumour-initiating cell frequency from the in vivo LDA of patient-derived CRC cells for each condition. ADAR1WT 5-AZA-CdR vs ADAR1KDA 5-AZA-CdR P=0.00862; ADAR1WT 5-AZA-CdR vs ADAR1KDB 5-AZA-CdR P=0.009; chi-square test.
One of the major challenges facing conventional chemotherapy is the persistence of cancer initiating cells (CICs), often resulting in relapse^38-40. We and others have previously shown that 5-AZA-CdR treatment can target colorectal cancer CICs by inducing the viral mimicry response^1,41. We therefore tested whether ADAR1^KD by itself or in combination with 5-AZA-CdR can decrease tumour initiation. To this end, we first employed an in vitro sphere initiation assay followed by limiting dilution analysis (LDA) using patient-derived CRC cells. […] In addition, we performed in vivo tumour initiation assays by injecting serially diluted patient-derived CRC cells into NSG immunodeficient mice and inspected tumour engraftment for up to 6 months after injection (FIG. 12F).

[3] = MDA5-protected RNAs present only in DNMTi treated samples
[4] = MDA5-protected, induced by DNMTi

Structure (SMILES): Nc1ncn([C@H]2C[C@H](O)[C@@H](CO)O2)c(=O)n1 [5-AZA-CdR]
- number of IR-Alu pairs, Immunogenic (5-AZA-CdR) condition ([1]; Baseline n=1,040): 4,482
- LTRs in MDA5-protected RNAs ([1]; DNMTi-treated samples, mock-treated 1.71%): 1.81%
- LINEs in MDA5-protected RNAs ([1]; DNMTi-treated samples, mock-treated 6.40%): 7.56%
- Alus in the MDA5-protected RNA ([1]; Immunogenic RNAs (5-AZA-CdR), 300 nM for 5 days, mock-treated 53.03%): 72.33%
- Alu retroelements among Treatment-Induced immunogenic RNAs [1, 3]: 88.72%
- LINEs among Treatment-induced immunogenic RNAs [1, 3]: 3.86%
- LTRs elements among Treatment-induced immunogenic RNAs [1, 3]: 1.37%
- non-repeats among Treatment-induced immunogenic RNAs [1, 3]: 5.15%
- treatment-induced IR-Alu pairs within intergenic regions [1, 4]: 16%
- treatment-induced IR-Alu pairs within introns [1, 4]: 70%
- number of IR-Alu pairs, Treatment-induced condition ([1]; present after 5-AZA-CdR, not at baseline): 3,687
- Number of Engrafted tumours/number of injected tumours ([2]; ADAR1^KDA, 10 cells injected): 0/16
- Number of Engrafted tumours/number of injected tumours ([2]; ADAR1^KDA, 100 cells injected): 0/8
- Number of Engrafted tumours/number of injected tumours ([2]; ADAR1^KDA, 1,000 cells injected): 3/8
- Number of Engrafted tumours/number of injected tumours ([2]; ADAR1^KDA, 10,000 cells injected): 5/8
- tumour engraftment potential ([2]; ADAR1^KDA/B cells relative to wild-type, up to 6 months): substantially reduced tumour engraftment potential
- Number of Engrafted tumours/number of injected tumours ([2]; ADAR1^KDB, 10 cells injected): 0/16
- Number of Engrafted tumours/number of injected tumours ([2]; ADAR1^KDB, 100 cells injected): 0/8
- Number of Engrafted tumours/number of injected tumours ([2]; ADAR1^KDB, 1,000 cells injected): 1/8
- Number of Engrafted tumours/number of injected tumours ([2]; ADAR1^KDB, 10,000 cells injected): 6/8
- Number of Engrafted tumours/number of injected tumours ([2]; ADAR1^WT, 10 cells injected): 0/16
- Number of Engrafted tumours/number of injected tumours ([2]; ADAR1^WT, 100 cells injected): 3/8
- Number of Engrafted tumours/number of injected tumours ([2]; ADAR1^WT, 1,000 cells injected): 5/8
- Number of Engrafted tumours/number of injected tumours ([2]; ADAR1^WT, 10,000 cells injected): 7/8
